Experimental data taken from patent publication US8492328B2, “Biomarkers and methods for determining sensitivity to insulin growth factor-1 receptor modulators” (Bristol-Myers Squibb Company, priority 2007, dated 2013).
Entries after “also recorded” stand apart in the source; their conditions may differ.

Key:
TC71 = experiment: In vitro cellular proliferation assay ([3H]-thymidine incorporation); format: cell-based, human
Method: (§1) All pediatric sarcoma and neuroblastoma cell lines were obtained from Dr. Lee Helman at NIH. All cell lines were grown in RPMI medium supplemented with Glutamax (Gibco/Invitrogen #61870-036), 10% inactivated fetal bovine serum (Gibco/Invitrogen #16140-071), 10 mM Hepes, penicillin and streptomycin.
(§2) Cells were plated at an optimized density for each cell line per well in 96-well microtiter Falcon plates, incubated overnight, and then exposed to a serial dilution of drug. After 72 hours incubation with drug at 37° C., cells were pulsed with 4 μCi/ml [6-3H] thymidine (Amersham Pharmacia Biotech, UK) for 3 hours, trypsinized, harvested onto UniFilter-96, GF/B plates (PerkinElmer, Boston, Mass.) and scintillation was measured on a TopCount NXT (Packard, Conn.). Results were expressed as an IC50, which is the drug concentration required to inhibit cell proliferation by 50% to that of untreated control cells. The mean IC50 and standard deviation (SD) from multiple tests for each cell line were calculated.

SK-LMS-1 = experiment: as above; format: cell-based, human
Method: as §1, §2

ME = experiment: as above; format: cell-based, human
Method: as §1, §2

LAN-1 = experiment: as above; format: cell-based, human
Method: as §1, §2

HT1080/S = experiment: as above; format: cell-based, human
Method: as §1, §2

IMR-32 = experiment: as above; format: cell-based, human
Method: as §1, §2

Rh36 = experiment: as above; format: cell-based, human
Method: as §1, §2

LG = experiment: as above; format: cell-based, human
Method: as §1, §2

SA-4 = experiment: as above; format: cell-based, human
Method: as §1, §2

SHSY5Y = experiment: as above; format: cell-based, human
Method: as §1, §2

KAG = experiment: as above; format: cell-based, human
Method: as §1, §2

Rh41 = experiment: as above; format: cell-based, human
Method: as §1, §2

JD = experiment: as above; format: cell-based, human
Method: as §1, §2

SW-684 = experiment: as above; format: cell-based, human
Method: as §1, §2

CTR = experiment: as above; format: cell-based, human
Method: as §1, §2

H513 = experiment: as above; format: cell-based, human
Method: as §1, §2

HTB-92 = experiment: as above; format: cell-based, human
Method: as §1, §2

RDES = experiment: as above; format: cell-based, human
Method: as §1, §2

H211 = experiment: as above; format: cell-based, human
Method: as §1, §2

H2052 = experiment: as above; format: cell-based, human
Method: as §1, §2

Rh1 = experiment: as above; format: cell-based, human
Method: as §1, §2

TC32 = experiment: as above; format: cell-based, human
Method: as §1, §2

SK-NAS = experiment: as above; format: cell-based, human
Method: as §1, §2

Rh4 = experiment: as above; format: cell-based, human
Method: as §1, §2

H2595 = experiment: as above; format: cell-based, human
Method: as §1, §2

VW = experiment: as above; format: cell-based, human
Method: as §1, §2

5838 = experiment: as above; format: cell-based, human
Method: as §1, §2

To184.T = experiment: as above; format: cell-based, human
Method: as §1, §2

SK-NSH = experiment: as above; format: cell-based, human
Method: as §1, §2

[1] = tested on: IGF1R-sal, Colo205, RD1, HT-29, WiDr, GEO, MDA-PCa-2b, MCF-7, H3396, N-87, BT474, and SKBR3 cell lines; experiment: Drug combination study (Dilution of Ratios) in cellular proliferation assays; details: for Combination Result: in vitro combination with compound 1, multiple cell lines, analyzed by Isobolograms

C[C@@]1(C(=O)Nc2ccc(F)nc2)CCCN1c1nc(Nc2cc(C3CC3)[nH]n2)c2cccn2n1 [Compound 2, (2S)-1-(4-((5-cyclopropyl-1H-pyrazol-3-yl)amino)pyrrolo[2,1-f][1,2,4]triazin-2-yl)-N-(6-fluoro-3-pyridinyl)-2-methyl-2-pyrrolidinecarboxamide]
IC50 (TC71; Homo sapiens, TC-71, 72 h): 14.3 nM | Sensitivity Classification (TC71; TC71 (Ewing)): S (“S” means sensitive) | IC50 (SK-LMS-1; Homo sapiens, SK-LMS-1, 72 h): 687 nM | Sensitivity Classification (SK-LMS-1; SK-LMS-1 (Leiomyosarcoma)): R (“R” means resistant to the corresponding compounds.) | IC50 (ME; Homo sapiens, 72 h): 15 nM | Sensitivity Classification (ME; ME (Rhabdomyosarcoma)): S (“S” means sensitive) | IC50 (LAN-1; Homo sapiens, LAN1, 72 h): 40 nM | Sensitivity Classification (LAN-1; LAN-1 (Neuroblastoma)): S (“S” means sensitive) | Sensitivity Classification (HT1080/S; HT1080/S (Fibrosarcoma)): R (“R” means resistant to the corresponding compounds.) | IC50 (HT1080/S; Homo sapiens, HT-1080, 72 h): 531 nM | IC50 (IMR-32; Homo sapiens, IMR-32, 72 h): 261 nM | Sensitivity Classification (IMR-32; IMR-32 (Neuroblastoma)): S (“S” means sensitive) | IC50 (Rh36; Homo sapiens, 72 h): 1430 nM | Sensitivity Classification (Rh36; Rh36 (Rhabdomyosarcoma)): R (“R” means resistant to the corresponding compounds.) | IC50 (LG; Homo sapiens, 72 h): 37.5 nM | Sensitivity Classification (LG; LG (Ewing)): S (“S” means sensitive) | IC50 (SA-4; Homo sapiens, 72 h): 1300 nM | Sensitivity Classification (SA-4; SA-4 (Liposarcoma)): R (“R” means resistant to the corresponding compounds.) | IC50 (SHSY5Y; Homo sapiens, SH-SY5Y, 72 h): 106 nM | Sensitivity Classification (SHSY5Y; SHSY5Y (Neuroblastoma)): S (“S” means sensitive) | IC50 (KAG; Homo sapiens, 72 h): 1660 nM | Sensitivity Classification (KAG; KAG (Ewing)): R (“R” means resistant to the corresponding compounds.) | IC50 (Rh41; Homo sapiens, Rh41, 72 h): 4.7 nM | Sensitivity Classification (Rh41; Rh41 (Rhabdomyosarcoma)): S (“S” means sensitive) | IC50 (JD; Homo sapiens, 72 h): 391 nM | sensitivity/resistance classification in words (JD; JD): resistant | Sensitivity Classification (JD; JD (Ewing)): R (“R” means resistant to the corresponding compounds.) | IC50 (SW-684; Homo sapiens, SW684, 72 h): 5000 nM | Sensitivity Classification (SW-684; SW-684 (Fibrosarcoma)): R (“R” means resistant to the corresponding compounds.) | sensitivity/resistance classification in words (CTR; CTR): sensitive | Sensitivity Classification (CTR; CTR (Rhabdomyosarcoma)): S (“S” means sensitive) | IC50 (CTR; Homo sapiens, 72 h): 253 nM | Sensitivity Classification (H513; H513 (Melignant Pleural Mesothelioma)): R (“R” means resistant to the corresponding compounds.) | IC50 (H513; Homo sapiens, H513, 72 h): 4450 nM | Sensitivity Classification (HTB-92; HTB-92 (Liposarcoma)): R (“R” means resistant to the corresponding compounds.) | IC50 (HTB-92; Homo sapiens, 72 h): 1020 nM | IC50 (RDES; Homo sapiens, RD-ES, 72 h): 11.7 nM | Sensitivity Classification (RDES; RDES (Ewing)): S (“S” means sensitive) | Sensitivity Classification (H211; H211 (Melignant Pleural Mesothelioma)): R (“R” means resistant to the corresponding compounds.) | IC50 (H211; Homo sapiens, NCI-H211, 72 h): 733 nM | Sensitivity Classification (H2052; H2052 (Melignant Pleural Mesothelioma)): R (“R” means resistant to the corresponding compounds.) | IC50 (H2052; Homo sapiens, NCI-H2052, 72 h): 1050 nM | IC50 (Rh1; Homo sapiens, RH-1, 72 h): 26.7 nM | Sensitivity Classification (Rh1; Rh1 (Rhabdomyosarcoma)): S (“S” means sensitive) | IC50 (TC32; Homo sapiens, TC-32, 72 h): 8.4 nM | Sensitivity Classification (TC32; TC32 (Ewing)): S (“S” means sensitive) | IC50 (SK-NAS; Homo sapiens, SK-N-AS, 72 h): 497 nM | sensitivity/resistance classification in words (SK-NAS; SK-NAS): resistant | Sensitivity Classification (SK-NAS; SK-NAS (Neuroblastoma)): R (“R” means resistant to the corresponding compounds.) | IC50 (Rh4; Homo sapiens, Rh4, 72 h): 4 nM | Sensitivity Classification (Rh4; Rh4 (Rhabdomyosarcoma)): S (“S” means sensitive) | Sensitivity Classification (H2595; H2595 (Melignant Pleural Mesothelioma)): R (“R” means resistant to the corresponding compounds.) | IC50 (H2595; Homo sapiens, NCI-H2595, 72 h): 4480 nM | IC50 (VW; Homo sapiens, 72 h): 19 nM | Sensitivity Classification (VW; VW (Ewing)): S (“S” means sensitive) | Sensitivity Classification (5838; 5838 (Ewing)): S (“S” means sensitive) | IC50 (5838; Homo sapiens, 72 h): 34 nM | IC50 (To184.T; Homo sapiens, 72 h): 470 nM | Sensitivity Classification (To184.T; To184.T (Liposarcoma)): R (“R” means resistant to the corresponding compounds.) | IC50 (SK-NSH; Homo sapiens, SK-N-SH, 72 h): 139 nM | Sensitivity Classification (SK-NSH; SK-NSH (Neuroblastoma)): S (“S” means sensitive) | Combination result of compound 2 ([1]; compound 2 with HER1/HER2 inhibitors or dasatinib, data not shown): synergy effects

COc1cc([C@@H]2c3cc4c(cc3[C@@H](O[C@@H]3O[C@@H]5CO[C@@H](C)O[C@H]5[C@H](O)[C@H]3O)[C@H]3COC(=O)[C@H]23)OCO4)cc(OC)c1O [VP-16]
Combination Result [1]: Additive

N.N.[Cl][Pt][Cl] [cisplatin]
Combination Result [1]: Additive

C#Cc1cccc(Nc2ncnc3cc(OCCOC)c(OCCOC)cc23)c1 [erlotinib]
Combination Result [1]: synergistic effects; also recorded: Synergy

COc1cc2ncnc(Nc3ccc(F)c(Cl)c3)c2cc1OCCCN1CCOCC1 [gefitnib]
Combination Result [1]: synergistic effects; also recorded: Synergy

CS(=O)(=O)CCNCc1ccc(-c2ccc3ncnc(Nc4ccc(OCc5cccc(F)c5)c(Cl)c4)c3c2)o1 [lapatinib]
Combination Result [1]: synergistic effects; also recorded: Synergy

CC(=O)O[C@H]1C(=O)[C@@]2(C)[C@H]([C@H](OC(=O)c3ccccc3)[C@]3(O)C[C@H](OC(=O)[C@H](O)[C@@H](NC(=O)c4ccccc4)c4ccccc4)C(C)=C1C3(C)C)[C@]1(OC(C)=O)CO[C@@H]1C[C@@H]2O [paclitaxel]
Combination Result [1]: Additive

CC[C@]1(O)C[C@H]2CN(CCc3c([nH]c4ccccc34)[C@@](C(=O)OC)(c3cc4c(cc3OC)N(C=O)[C@H]3[C@@](O)(C(=O)OC)[C@H](OC(C)=O)[C@]5(CC)C=CCN6CC[C@]43[C@@H]65)C2)C1 [vincristine]
Combination Result [1]: Additive
